# Laboratory results published in US4383990A, “Antiviral agents, their preparation and use” (priority 1980, dated 1983).
# Assays:
# [1] = tested on: Herpes simplex type 1 virus (HFEM strain); assay: Plaque reduction of Herpes simplex type 1 virus (HFEM strain) in Vero cells; assay type: cell-based, Herpes simplex virus type 1; conditions: for ED50 (concentration reducing the plaque number at 50%): HSV-1 strain HFEM, 8640 min; for ED50 (concentration reducing the plaque number at 50%) / IC50: Vero cells; for IC50: Human alphaherpesvirus 1, 144 h, HSV-1 HFEM strain, 37° C., 6 days
# Text: (§1) The same method was used to determine the ED50 (concentration reducing the plaque number at 50%) of the E/Z mixture against the KOS and SK16 strains of Herpes simplex virus type 1 and the ED50 of the E/Z mixture and the separated isomers ("peak 1" and "peak 2") against the HFEM strain.
# [2] = african green monkey, vero cells
# Protocol: Vero (African Green Monkey Kidney) cells were grown to confluence in 6 well multidishes, each well being 3.5 cm in diameter. The cells were incubated with Herpes simplex type 1 virus (HFEM strain) and overlaid with 0.5 mL of 0.9% agarose (w/v) in maintenance medium containing the test compound at a range of concentrations from 200 μg/mL in half-log dilution steps. The virus infected cultures were then incubated at 37° C. for 6 days before fixing in 4% formaldehyde solution and staining with carbolfuchsin. The dishes were then examined to find that concentration of test compound causing a 50% reduction in the number of virus plaques formed (PDD50 value) and the minimum concentration of test compound which killed the cell monolayer, leaving a clear zone devoid of cells and virus plaques (MTD).
# [3] = tested on: Herpes simplex virus type 1 (SCl6 strain); assay: Plaque reduction of Herpes simplex virus type 1, SCl6 strain; assay type: cell-based; conditions: Human alphaherpesvirus 1, 144 h; HSV-1 strain SCl6, Vero cells; read-out: ED50 (concentration reducing the plaque number at 50%)
# Text: as §1
# [4] = Anti-host cell activity: growth of Vero cells; assay type: cell-based, African Green Monkey; conditions: monkey, vero cells; Vero cell growth versus antiviral activity; read-out: Therapeutic ratio
# Protocol: (§2) Vero cells seeded at low density were grown in the presence of E/Z-5-(2-chloro-1,2-difluorovinyl)-2'-deoxyuridine for 72 h. During this time the cells doubled in number approximately once every 24 h. […] 5-(2-Chloro-1,2-difluorovinyl)-2'-deoxyuridine thus has a therapeutic ratio of >5.
# Vero cells = assay: Anti-host cell activity: growth of Vero cells; assay type: cell-based, African Green Monkey; conditions: Vero cells, 72 h
# Protocol: as §2
# [5] = tested on: human diploid fibroblast MRC-5 cell line; assay: Anti-host cell activity: proliferation of human diploid fibroblast MRC-5 cells; assay type: cell-based; conditions: even at 200 μg/ml
# [6] = tested on: Herpes simplex virus type 1 (KOS strain); assay: Plaque reduction of Herpes simplex virus type 1, KOS strain; assay type: cell-based; conditions: Human alphaherpesvirus 1, 144 h; HSV-1 strain KOS, Vero cells; read-out: ED50 (concentration reducing the plaque number at 50%)
# Text: as §1
compound,measurement,setting,value
"O=c1[nH]c(=O)n([C@H]2C[C@H](O)[C@@H](CO)O2)cc1C(F)=C(F)Cl (single isomer, unassigned) [Peak 1]",ED50 (concentration reducing the plaque number at 50%),[1],> 100 µg/mL
"O=c1[nH]c(=O)n([C@H]2C[C@H](O)[C@@H](CO)O2)cc1C(F)=C(F)Cl (single isomer, unassigned) [Peak 2]",ED50 (concentration reducing the plaque number at 50%),[1],24 ± 6 µg/mL
same,Activity of the separated isomers in the screens,"[1]; in words, at the levels tested",Only one of the isomers is active at the levels tested
"O=c1[nH]c(=O)n([C@H]2C[C@H](O)[C@@H](CO)O2)cc1I [5-iodo-2'-deoxyuridine, reference compound]",MCC at 144 h,[2],> 100 µg/mL
same,IC50,[1],3 µg/mL
"O=c1[nH]c(=O)n([C@H]2C[C@H](O)[C@@H](CO)O2)cc1C(F)=C(F)Cl [E/Z-5-(1,2-Difluoro-2-chlorovinyl)-2'-deoxyuridine]",EC50,[3],21 µg/mL
same,selectivity ratio,[4],> 5
same,Cell doubling time in the presence of compound,Vero cells,~24 h
same,Depression of cell growth,Vero cells; 100 μg/ml,only slight depression of cell growth was observed
same,MCC at 144 h,[2],> 200 µg/mL
same,ED50 (concentration reducing the plaque number at 50%),[1]; listed as E/Z,24 ± 3 µg/mL
same,IC50,[1],14 µg/mL
same,Effect on cell proliferation,[5],little effect on cell proliferation
same,EC50,[6],20 µg/mL
